Starred links: 1 amine or outer side, 2 acyl side, 3 side chain; linkers in the order of their positions; H or OH if unused. Positions of bridges follow the written chain, without caps; N, C: chain ends. Non-standard residues stand in square brackets, D forms with d. Chains are numbered I, II in the order given. X3 = O=C(CCOCCN(CCOCCC(=O)NCCOCCOCCOCCOCCOCCOCCOCCOCCOCCOCCn1nnc2c1CCC1C(CC2)C1COC(=O)[*:2])CCOCCC(=O)NCCOCCOCCOCCOCCOCCOCCOCCOCCOCCOCCn1nnc2c1CCC1C(CC2)C1COC(=O)[*:3])NCCOCCOCCOCCOCCOCCOCCOCCOCCOCCOCCn1nnc2c1CCC1C(CC2)C1COC(=O)[*:1]; TATA = O=C(CC[*:1])N1CN(C(=O)CC[*:2])CN(C(=O)CC[*:3])C1; Nle = CCCC[C@H](N)C(=O)O
Biological target: CD137 (Homo sapiens, UniProt Q07011)
Assay: CD137 Promega reporter cell activity assay (NF-κB luciferase in Jurkat cells)
Details: for Average Fold EC50 Improvement relative to CD137L: Average EC50 for CD137L = 14.2 nM; for Average Relative Fold Induction relative to CD137L: Average fold induction for CD137L = 4.0

CD137, sequence (Q07011 24-255): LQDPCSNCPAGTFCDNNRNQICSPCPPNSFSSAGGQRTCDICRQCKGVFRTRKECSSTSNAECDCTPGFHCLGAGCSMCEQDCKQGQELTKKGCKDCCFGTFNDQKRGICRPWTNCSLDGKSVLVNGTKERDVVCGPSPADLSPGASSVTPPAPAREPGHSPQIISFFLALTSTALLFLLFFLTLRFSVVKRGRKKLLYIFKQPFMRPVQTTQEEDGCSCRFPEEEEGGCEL

| Molecule | Average Fold EC50 Improvement relative to CD137L | Average Relative Fold Induction relative to CD137L |
| --- | --- | --- |
| CCCC[C@@H]1NC(=O)[C@H](Cc2ccc(O)cc2)NC(=O)[C@@H]2CCCN2C(=O)[C@H](CC(=O)O)NC(=O)[C@H](C)NC(=O)[C@H](Cc2ccccc2)NC(=O)[C@@H]2CSCCC(=O)N3CN(CN(C3)C(=O)CCSC[C@@H](C(=O)N[C@@H](C)C(N)=O)NC1=O)C(=O)CCSC[C@H](NC(=O)[C@H](C)NC(C)=O)C(=O)N[C@@H]([C@@H](C)CC)C(=O)N[C@@H](CCC(=O)O)C(=O)N[C@@H](CCCCNC(=O)OCC1C3CCc4nnn(CCOCCOCCOCCOCCOCCOCCOCCOCCOCCOCCNC(=O)CCOCC(COCCC(=O)NCCOCCOCCOCCOCCOCCOCCOCCOCCOCCOCCn5nnc6c5CCC5C(CC6)C5COC(=O)NCCCC[C@@H]5NC(=O)[C@H](CCC(=O)O)NC(=O)[C@H]([C@@H](C)CC)NC(=O)[C@@H](NC(=O)[C@H](C)NC(C)=O)CSCCC(=O)N6CN7CN(C6)C(=O)CCSC[C@H](NC(=O)[C@H](Cc6ccc(O)cc6)NC(=O)[C@H](CCC(N)=O)NC(=O)CNC5=O)C(=O)N[C@@H](Cc5ccccc5)C(=O)N[C@@H](C)C(=O)N[C@@H](CC(=O)O)C(=O)N5CCC[C@H]5C(=O)N[C@@H](Cc5ccc(O)cc5)C(=O)N[C@@H](CCCC)C(=O)N[C@H](C(=O)N[C@@H](C)C(N)=O)CSCCC7=O)(COCCC(=O)NCCOCCOCCOCCOCCOCCOCCOCCOCCOCCOCCn5nnc6c5CCC5C(CC6)C5COC(=O)NCCCC[C@@H]5NC(=O)[C@H](CCC(=O)O)NC(=O)[C@H]([C@@H](C)CC)NC(=O)[C@@H](NC(=O)[C@H](C)NC(C)=O)CSCCC(=O)N6CN7CN(C6)C(=O)CCSC[C@H](NC(=O)[C@H](Cc6ccc(O)cc6)NC(=O)[C@H](CCC(N)=O)NC(=O)CNC5=O)C(=O)N[C@@H](Cc5ccccc5)C(=O)N[C@@H](C)C(=O)N[C@@H](CC(=O)O)C(=O)N5CCC[C@H]5C(=O)N[C@@H](Cc5ccc(O)cc5)C(=O)N[C@@H](CCCC)C(=O)N[C@H](C(=O)N[C@@H](C)C(N)=O)CSCCC7=O)COCCC(=O)NCCOCCOCCOCCOCCOCCOCCOCCOCCOCCOCCn5nnc6c5CCC5C(CC6)C5COC(=O)NCCCC[C@@H]5NC(=O)[C@H](CCC(=O)O)NC(=O)[C@H]([C@@H](C)CC)NC(=O)[C@@H](NC(=O)[C@H](C)NC(C)=O)CSCCC(=O)N6CN7CN(C6)C(=O)CCSC[C@H](NC(=O)[C@H](Cc6ccc(O)cc6)NC(=O)[C@H](CCC(N)=O)NC(=O)CNC5=O)C(=O)N[C@@H](Cc5ccccc5)C(=O)N[C@@H](C)C(=O)N[C@@H](CC(=O)O)C(=O)N5CCC[C@H]5C(=O)N[C@@H](Cc5ccc(O)cc5)C(=O)N[C@@H](CCCC)C(=O)N[C@H](C(=O)N[C@@H](C)C(N)=O)CSCCC7=O)c4CCC31)C(=O)NCC(=O)N[C@@H](CCC(N)=O)C(=O)N[C@@H](Cc1ccc(O)cc1)C(=O)N2 (stereo partly shown) [BCY8150] | 4.14 | 0.77 |
| I: Ac-ACIEEGKYCFADPY[Nle]CA-NH2 / II: Ac-ACIEEGKYCFADPY[Nle]CA-NH2 / III: Ac-ACIEEGKYCFADPY[Nle]CA-NH2 (linker I:2-I:9-I:16, II:2-II:9-II:16, III:2-III:9-III:16 via TATA; linker I:7-II:7-III:7 via X3) [BCY8151] | 213.05 | 0.49 |

Source: patent US11542304B2, “Multimeric bicyclic peptide ligands” (BicycleTx Limited, priority 2018, dated 2023)
